According to paper PMC5175178, “Development of an in-vivo active reversible butyrylcholinesterase inhibitor” (Scientific Reports, 2016):
Read-outs that look alike come from different tables or passages of the source.

Experiments:
in vitro = in vitro ADME; set-up: protein bound: dose or concentration left out as unconfirmed; conditions: for recovery at 4 h, 10 µM: human, pH 7.4, human plasma protein binding assay
Protocol: The experiment was accepted in accordance with Eurofins validation Standard Operating Procedure.
The equilibrium dialysis technique was used to separate the fraction of the bound to human plasma protein. The assay was performed in a 96-well format in a dialysis block constructed from Teflon to minimize the unspecific binding^25. Plasma from human was used as the default protein containing matrix. […] The dialysate compartment was loaded with the phosphate buffered saline (PBS, pH 7.4), and the sample side was loaded with equal volume of the spiked protein matrix. The dialysis plate was then sealed and incubated at 37 °C for 4 h. A control sample (n = 2) was prepared from the spiked protein matrix in the same manner as the assay sample (without dialysis). The control sample served as the basis for the recovery determination. After the incubation, samples were taken from each compartment, diluted with phosphate buffer followed by addition of acetonitrile and centrifugation. The supernatants were then used for HPLC-MS/MS analysis using selected reaction monitoring. The HPLC conditions consisted of a binary LC pump with autosampler, a C18 column (2 × 20 mm), and gradient elution.
Protein binding (%) = (Areap-Areab) / Areap ×100 (3),
Recovery (%) = (Areap-Areab) / Areac ×100 (4),
The recovery determination serves as an indicator of reliability of the calculated protein binding value. Low recovery would indicate that the test compound is lost during the course of the assay, most likely due to non-specific binding or degradation.

mAChE = molecular target: T1, mAChE (Mus musculus, UniProt P21836); experiment: In-vitro inhibitory activity against mAChE, method of Ellman; assay type: biochemical, murine
T1 construct: donated by Florian Nachon (IBS, Grenoble)
T1 sequence (P21836 32-614): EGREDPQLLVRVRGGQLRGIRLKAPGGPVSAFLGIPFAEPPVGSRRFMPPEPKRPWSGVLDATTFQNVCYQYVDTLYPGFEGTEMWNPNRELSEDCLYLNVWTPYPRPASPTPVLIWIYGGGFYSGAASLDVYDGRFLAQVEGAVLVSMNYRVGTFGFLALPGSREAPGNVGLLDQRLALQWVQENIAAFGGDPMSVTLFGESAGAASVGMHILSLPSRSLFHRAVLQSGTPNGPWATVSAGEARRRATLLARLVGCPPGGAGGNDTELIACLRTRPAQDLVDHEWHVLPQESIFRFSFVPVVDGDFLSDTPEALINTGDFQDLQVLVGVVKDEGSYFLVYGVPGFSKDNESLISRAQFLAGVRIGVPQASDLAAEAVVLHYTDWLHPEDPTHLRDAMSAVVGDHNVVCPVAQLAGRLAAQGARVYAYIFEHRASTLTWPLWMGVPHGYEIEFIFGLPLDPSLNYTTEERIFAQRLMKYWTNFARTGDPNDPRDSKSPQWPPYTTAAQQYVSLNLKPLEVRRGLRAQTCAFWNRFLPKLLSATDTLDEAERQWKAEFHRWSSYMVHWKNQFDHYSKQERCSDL
Protocol: The inhibitory potencies of the compounds against the ChEs were determined using the method of Ellman[32].
The enzyme solutions were prepared by dilution of the concentrated stocks in phosphate-buffered solution (0.1 M, pH 8.0). […] The reactions were started by addition of the substrate, at room temperature. The final content of the organic solvent (DMSO) was always 1%. […] To determine the blank value (b), phosphate-buffered solution replaced the enzyme solution. The initial velocity (v0) was calculated from the slope of the linear trend obtained, with each measurement carried out in triplicate. […] The compounds were added to each well at a final concentration of 10 μM. […] The initial velocities in the presence of the test compounds (vi) were calculated. The inhibitory potencies are expressed as the residual activities (RA = (vi – b) / (vo – b)). […] The IC50 values were obtained by plotting the residual enzyme activities against the applied inhibitor concentrations, with the experimental data fitted to Equation (1):
where X is the logarithm of the inhibitor concentration, and Y is the residual activity. For the fitting procedure, the Gnuplot software and an in-house python script were used.

[1] = human plasma, 10 µM, 37 °C, 4 h

## COCCN(CC1CCCN(Cc2ccccc2)C1)S(=O)(=O)c1ccc2ccccc2c1 (racemic) [compound 2, (±)-N-((1-benzylpiperidin-3-yl)methyl)-N-(2-methoxyethyl)naphthalene-2-sulfonamide]
In vitro; human blood plasma, equilibrium dialysis
  protein bound: 96%
In vitro; [1]
  Protein Bound (%) 1st: 96.0%
  Protein Bound (%) 2nd: 95.3%
  Protein Bound (%) Mean: 96%
In vitro; read-out: Recovery (%) 1st
  recovery at 4 h, 10 µM: 101%
In vitro; read-out: Recovery (%) 2nd
  recovery at 4 h, 10 µM: 99%
In vitro; read-out: Recovery (%) Mean
  recovery at 4 h, 10 µM: 100%
mAChE; residual activity at 10 μM, %RA > 75% was considered as no inhibition, Table 1
  %RA at 10 µM ±SEM mAChE: 97% ± 2%
mAChE; residual activity at 10 µM, %RA >75% was considered no inhibition, Supplementary Table 1
  %RA at 10 µM ±SEM mAChE: 97% ±2%
